System: sperm
Experiment: Split quality, split enhancing dyes at various concentrations and incubation times (Example 10)
Format: cell-based, bulls
Settings: 15, 45, 125 μM; 30-75 minutes; averaged over 8 bulls
Method: Eight bulls were collected, including 4 Jersey bulls, 3 Holstein bulls and one mixed dairy-breed. The ejaculates were collected at concentrations ranging from 1700×10^6 sperm/ml to 1100×10^6 sperm/ml and all had progressive motility of a least 60%.
Sperm from each bull was extended to 160 million per ml with a first buffer, (TALP described in table 1 at a pH 7.4) and stained with 64 μM (164/2 mL) Hoechst 33342 at 34° C. Additionally, Phenol Red, Red Food Dye No. 2, Red Food Dye No. 3, and Red Food Dye No. 4, were each tested as split enhancing dyes in the first buffer at concentrations of 15 μM, 45 μM and 125 μM. For each bull, each concentration of each dye was incubated for periods of 30 minutes, 45 minutes, 60 minutes, and 75 minutes were utilized before a second buffer with an additional dye was applied.
Each sample was then extended in an equal volume of a second buffer which comprised a 5.5 pH modified TALP having 25 μM yellow food dye No. 6 (acting as a dead quenching dye) in addition to the split enhancing dye provided in the first buffer. The second buffer was applied to every sample at 30 minutes, 45 minutes, 60 minutes, and 75 minutes. A control was additionally taken without any split enhancing dye for every bull at every time interval.
Sorting was performed on a MoFlo SX (Beckman Coulter, USA) in substantially the same manner described in Example 5. After calibration, screen shots of sorting histograms were taken and split quality was measured by peak to valley ratios in the same way described in Example 5 with reference to FIG. 4 and the resulting data, averaged over all 8 bulls, is found in Tables 18-21. Additionally, screen shots of bivariate plots were taken to measure the added dead quenching capacity of the mixed dead quenching and split enhancing dyes.

Structure (SMILES): O=S1(=O)OC(c2ccc(O)cc2)(c2ccc(O)cc2)c2ccccc21 [Phenol Red, phenolsulfonphthalein]
- split enhancing effect compared to control: provided consistent split improvements at all concentrations after 30 minutes

Reference: patent US9581587B2, “Sperm staining and sorting methods” (INGURAN, LLC, priority 2011, dated 2017)
